We go through nine compounds from ChEMBL document CHEMBL1201862, “PubChem BioAssay data set” (2004).

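Protocol summary: plate cells (96-well), add compound at 5 concentrations, incubate 48 h, interpolate endpoints linearly. GI50: concentration for 50% inhibition of growth.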 Active and inactive are the calls of the source. No stated cut-off is given here; in the data, active = GI50 up to about 1.1 µM and inactive = higher.

Test systems include 786-0; A549; CCRF-CEM; COLO 205; HCT-15; HOP-62; HT-29; IGROV-1; K562; KM12; LOX IMVI; Malme-3M; NCI-H226; NCI-H522; OVCAR-4; SK-MEL-5; SK-OV-3; NCI/ADR-RES; PC-3.
Common to all, as to assay: NCI-60 cell line screen, 48 h

As to `Cc1cccc(N2C(=O)C(Cl)=C(Cl)C2=O)c1`, the GI50 in the assay with 786-0 was > 54.1 µM (inactive); with A549 it was > 100 µM (inactive); in the assay with CCRF-CEM, 18.5 µM (inactive); with COLO 205, > 69 µM (inactive); in the assay with HCT-15, greater than 41.7 µM; in the assay on HOP-62, > 100 µM (inactive). In addition, the GI50 in the assay on HT-29 was > 62.2 µM (inactive); in the assay with IGROV-1, > 100 µM (inactive); in the assay with K562, 35.3 µM (inactive); in the assay on KM12 it was > 100 µM (inactive); in the assay with LOX IMVI, > 100 µM (inactive); with Malme-3M, > 42.1 µM (inactive). The GI50 is > 100 µM (inactive) with NCI-H226; 8.91 µM (inactive) in the assay with NCI-H522; > 46.3 µM (inactive) with OVCAR-4; > 100 µM (inactive) in the assay on SK-MEL-5; > 100 µM (inactive) in the assay with SK-OV-3.

With `O=C1CCCSCCCC(=O)CCCSCCC1`, the GI50 in the assay with 786-0 is > 100 µM (inactive); in the assay with A549, > 100 µM (inactive); in the assay with CCRF-CEM, > 100 µM (inactive); in the assay with COLO 205, > 100 µM (inactive); with HCT-15, greater than 100 µM; in the assay on HOP-62, > 100 µM (inactive). Further, the GI50 in the assay with HT-29, in the assay on IGROV-1, in the assay with K562, in the assay with KM12, in the assay on LOX IMVI and in the assay with NCI-H522 was > 100 µM (inactive) in each case. For the same compound, the GI50 in the assay on NCI/ADR-RES, in the assay on OVCAR-4, with PC-3, with SK-MEL-5 and in the assay on SK-OV-3 was > 100 µM (inactive) each time.

Take `O=c1[nH]cc(COCCO)c(=O)[nH]1`: the GI50 in the assay on 786-0 was > 100 µM (inactive); in the assay with A549 it was > 100 µM (inactive); in the assay with CCRF-CEM it was > 100 µM (inactive); in the assay with COLO 205 it was > 100 µM (inactive); with HCT-15 it was greater than 100 µM; with HOP-62, > 100 µM (inactive). The GI50 with HT-29, in the assay on IGROV-1, in the assay on K562, in the assay on KM12, in the assay with LOX IMVI and with Malme-3M was > 100 µM (inactive) throughout. Besides, the GI50 in the assay on NCI-H226, in the assay with NCI-H522, in the assay on OVCAR-4, in the assay with SK-MEL-5 and in the assay with SK-OV-3 was > 100 µM (inactive) throughout.

`CCCCNC(=S)N/C=C1\C(=O)Oc2ccccc2C1=O`: the GI50 in the assay on 786-0 was > 100 µM (inactive); in the assay with A549, > 100 µM (inactive); in the assay on COLO 205 it was > 100 µM (inactive); with HCT-15, 48 µM; in the assay with HOP-62 it was 80.2 µM (inactive); in the assay on HT-29, > 100 µM (inactive). The GI50 was 35.4 µM (inactive) in the assay on IGROV-1; > 100 µM (inactive) in the assay on KM12; > 100 µM (inactive) with LOX IMVI; > 100 µM (inactive) in the assay with NCI-H226; > 100 µM (inactive) in the assay on NCI/ADR-RES; 74.5 µM (inactive) in the assay with OVCAR-4. For the same compound, the values for the GI50 in the assay with PC-3, in the assay with SK-MEL-5 and with SK-OV-3 were 92.5 µM (inactive), > 100 µM (inactive) and > 100 µM (inactive), respectively.

With `CCN(CC)CCC1(C2CCCCC2)CCC(=O)NC1=O` (configuration not stated), the GI50 is > 100 µM (inactive) with 786-0; > 100 µM (inactive) in the assay on A549; > 100 µM (inactive) in the assay on CCRF-CEM; > 100 µM (inactive) with COLO 205; greater than 100 µM in the assay on HCT-15; > 100 µM (inactive) in the assay on HOP-62. Also, the GI50 with HT-29, in the assay on IGROV-1, with K562, in the assay on KM12, with LOX IMVI and with Malme-3M was > 100 µM (inactive) throughout. Also, the GI50 in the assay with NCI-H226, with NCI-H522, in the assay with OVCAR-4, in the assay with SK-MEL-5 and in the assay with SK-OV-3 was > 100 µM (inactive) each time.

For `COc1ccc2c(c1)CCC1=CC3(CCC12C)SCCS3` (configuration not stated), the GI50 in the assay with 786-0 was 5.64 µM (inactive); in the assay with A549, 8.05 µM (inactive); in the assay on CCRF-CEM, 3.97 µM (inactive); in the assay with COLO 205, 4.73 µM (inactive); in the assay with HCT-15, 6.38 µM; in the assay with HOP-62, > 10 µM (inactive). In addition, the GI50 was 3.68 µM (inactive) in the assay on HT-29; 6.19 µM (inactive) in the assay on IGROV-1; 3.72 µM (inactive) with K562; 4.27 µM (inactive) in the assay with KM12; 7.06 µM (inactive) with LOX IMVI; 5.35 µM (inactive) in the assay with Malme-3M. Further, the GI50 in the assay with NCI-H522 is 2.99 µM (inactive); with NCI/ADR-RES, 3.56 µM (inactive); in the assay on OVCAR-4, > 10 µM (inactive); in the assay on PC-3, 8.26 µM (inactive); in the assay with SK-MEL-5, 6.93 µM (inactive); in the assay on SK-OV-3 it was 3.27 µM (inactive).

For `COC(=O)C1[C@H](c2cc(OC)c(OC)c(OC)c2)OC(=O)C1(C(=O)OC)C(=O)c1ccc2c(c1)OCO2` (some centres not stated), the GI50 was > 100 µM (inactive) with 786-0; > 100 µM (inactive) in the assay on A549; > 100 µM (inactive) in the assay on CCRF-CEM; > 100 µM (inactive) in the assay on COLO 205; greater than 100 µM in the assay with HCT-15; > 100 µM (inactive) in the assay on HOP-62. Also, the GI50 in the assay on HT-29, in the assay with IGROV-1, with K562, in the assay with KM12, in the assay on LOX IMVI and in the assay on Malme-3M was > 100 µM (inactive) each time. The GI50 with NCI-H226, in the assay with NCI-H522, with OVCAR-4, in the assay with SK-MEL-5 and in the assay on SK-OV-3 was > 100 µM (inactive) each time.

In the case of `O=C(/N=N/c1ccc(Cl)cc1Cl)NNc1ccc(Cl)cc1Cl`, the GI50 in the assay with 786-0 is 15.3 µM (inactive); in the assay on A549, 18.2 µM (inactive); in the assay on CCRF-CEM, 20.2 µM (inactive); with HCT-15, 19.6 µM; in the assay on HOP-62, 1.75 µM (inactive); with HT-29, 37.2 µM (inactive). Also, the GI50 in the assay on IGROV-1 is 27 µM (inactive); in the assay on K562 it was 20.8 µM (inactive); with LOX IMVI, 16.5 µM (inactive); in the assay on Malme-3M, 18.6 µM (inactive); in the assay on NCI-H226, 19 µM (inactive); with NCI-H522, 19.1 µM (inactive). The GI50 with OVCAR-4 was 13.3 µM (inactive); with PC-3, 12.2 µM (inactive); in the assay with SK-MEL-5, 14.9 µM (inactive).

Consider `COc1ccccc1-c1nc[nH]c1-c1ccccc1OC`, for which the GI50 with 786-0 is 35.5 µM (inactive); with A549, 22.6 µM (inactive); in the assay on HCT-15 it was 35 µM; in the assay with HOP-62, 40.8 µM (inactive); in the assay on IGROV-1 it was 29 µM (inactive); in the assay with K562, 19.9 µM (inactive). Besides, the GI50 in the assay with KM12 was 2.45 µM (inactive); in the assay on LOX IMVI, 16.8 µM (inactive); with Malme-3M it was 11.2 µM (inactive); in the assay with NCI-H522, 13.2 µM (inactive); with NCI/ADR-RES, 22 µM (inactive); in the assay with OVCAR-4 it was 25.8 µM (inactive). In addition, the GI50 in the assay with PC-3 was 18.6 µM (inactive); in the assay with SK-OV-3 it was 36.1 µM (inactive).
